These results are taken from US20120252119A1, “METHODS FOR THE COLLECTION AND MATURATION OF OOCYTES” (priority 2009, published 2012).

For test [1], the system named is FSH-induced oocyte maturation. The test can be described thus: EGFR kinase inhibitor on FSH-induced oocyte maturation in presence of cilostamide. Format: cell-based, bovine. The method, then: The basic oocyte maturation medium (also referred to as the “IVM medium” or “IVM phase medium”) used for the IVM phase was a bovine maturation medium (termed Bovine VitroMat, Cook Australia), a medium formulated to closely replicate the ionic composition of bovine follicular fluid. Where indicated, the type-3 PDE specific inhibitor cilostamide (20 μM; Biomol Plymouth Meeting, Pa.) or the epidermal growth factor receptor (EGFR) kinase inhibitor, AG1478 (Alexis Biochemicals, San Diego, Calif.), were added to the IVM medium from a millimolar stock solution stored at −20° C. dissolved in DMSO. […]
At the end of the incubation, COCs were denuded and oocytes were fixed for 30 min in 4% paraformaldehyde in PBS (pH 7.4). Oocytes were then permeabilized in 0.1% Triton X-100 in 0.1% sodium citrate for 1 hour, then transferred to 0.001% 4′,6-diamidino-2-phenylindole (DAPI), a fluorescence stain for nuclear material, for 15 min. Oocytes were rinsed 3 times in PBS+0.03% BSA, mounted on slides and evaluated for nuclear status at 400× using an Olympus fluorescence microscope. Stages of germinal vesicle (GV) and subsequent meiotic development were assessed based on known techniques (Chohan and Hunter, 2003, Anim. Reprod. Sci. 76: 43-51). […]
Oocytes were then fixed and assessed for meiotic progression at 24 hours. […]

The subject of test [2] is cAMP content of the whole COCs. Briefly: cAMP content of bovine COCs, radioimmunoassay. It is filed as cell-based. The following applies: agent alone, up to 2 hours, FIG. 2. On the procedure:
Oocytes were aspirated with their cumulus vestments intact (COCs). A subset of the COCs were denuded of their cumulus vestment prior to assay (DO). Aspiration and subsequent selection procedures (pre-IVM phase) were performed for 2 hours where oocytes (COCs and DOs) were processed in various media (termed “pre-IVM phase media” or “pre-IVM media”). These included processing of oocytes either in follicular fluid, or in two types of collection medium. […] Cyclic AMP content of COCs and denuded oocytes (DOs), i.e. those oocytes cultured as COCs but denuded of their cumulus vestment prior to assay, were measured using a radioimmunoassay method described and validated previously (Reddoch et al., 1986, Endocrinology 119: 879-886). […] Briefly, supernatants were collected, evaporated, resuspended in assay buffer (50 mM sodium acetate, pH 5.5) and acetylated by the addition of triethylamine (AJAX Chemicals, Sydney, Australia) and acetic anhydride (BDH Laboratory Supplies, Poole, England) 2:1 v/v. cAMP was measured in duplicates after appropriate dilution. ^125I-labelled cAMP (specific activity of 2175 Ci/mM) and cAMP antibody (as prepared by Reddoch et al supra) were added to samples and left overnight at 4° C. […] The supernatant was removed and the pellet dried and counted using a gamma counter. […]

The test system of test [3] is bovine oocytes. Briefly: Bovine in vitro fertilization and embryo culture (cleavage, blastocyst development). Format: cell-based. On the procedure: At 24 or 30 hours after IVM, COCs were washed twice using Bovine VitroWash (Cook Australia), and transferred to insemination dishes containing in vitro fertilisation (IVF) medium (Bovine VitroFert, Cook Australia) supplemented with penicillamine (0.2 mM; Sigma), hypotaurine (0.1 mM; Sigma), and heparin (2 mg/ml; Sigma). Frozen semen from a single bull of proven fertility was used for insemination. Briefly, thawed semen was layered over a discontinuous (45%: 90%) Percoll gradient (Amersham Bioscience) and centrifuged for 20-25 minutes at 700 g. The supernatant was removed and the sperm pellet was washed with 500 μl Bovine VitroWash and centrifuged for a further 5 minutes at 200 g. […] Embryos were assessed for quality at Day 8 according to the definitions presented in Stingfellow and Seidel, 1998, Manual of the International Embryo Transfer Society. […]
Therefore, cumulus-oocyte complexes (COCs) were aspirated and selected in either follicular fluid, collection medium or collection medium supplemented with 100 μM forskolin (FSK) and 500 μM IBMX for 2 hours. […] Oocyte developmental capacity was then assessed after in vitro fertilization and embryo development was assessed by the cleavage rate and blastocyst rate on day 8. […]

Test [4] has as its system human oocytes. The test can be described thus: Human oocyte IVM, meiosis score. It is filed as cell-based. The following applies: for % GV / % GVBD / % PB: IVM with 0.1 μM cilostamide and FSH. The method, then:
Immature human cumulus-oocyte complexes (COC) were collected from young, healthy women (not from IVF patients). […] Oocyte pick-up was performed when the lead ovarian follicle reached 12 mm. Immature oocytes were then stratified to various treatments during either the Pre-IVM or IVM periods, as detailed below. In addition, time of removal of somatic cells from oocytes (denuding) during the oocyte maturation period was examined. The following trials were conducted: • Dose of PDE3-inhibitor (cilostamide) during IVM: 0 versus 0.1 versus 1.0 μM • cAMP modulators during Pre-IVM: control versus IBMX versus IBMX+forskolin • Effect of time of oocyte denuding on embryo development: 30 versus 40 versus 44-48 hours
At the oocyte pick-up, COC were collected immediately into pre-IVM treatments in VitroCollect medium (Cook Australia, Brisbane, Australia) and held for one hour. Following pre-IVM, COC were washed and then transferred to IVM treatments (e.g. dose of cilostamide) in VitroMat medium (Cook) and matured under standard conditions. At the various times post-denuding, oocytes were monitored for maturation (polar body [PB] extrusion). At the end of maturation (48 hours) a final meiosis score was given. As oocytes matured they were inseminated using standard intra-cytoplasmic sperm injection (ICSI) procedures using donor sperm. 24 hours later fertilisation rates were determined. Embryos were cultured for up to 6 days until developmental arrest using standard procedures.

The test system of test [5] is bovine oocytes. Briefly: Oocyte nuclear morphology assessment (GV configuration, GVBD, meiotic progression). Format: cell-based. The method, then: At the end of the incubation, COCs were denuded and oocytes were fixed for 30 min in 4% paraformaldehyde in PBS (pH 7.4). Oocytes were then permeabilized in 0.1% Triton X-100 in 0.1% sodium citrate for 1 hour, then transferred to 0.001% 4′,6-diamidino-2-phenylindole (DAPI), a fluorescence stain for nuclear material, for 15 min. Oocytes were rinsed 3 times in PBS+0.03% BSA, mounted on slides and evaluated for nuclear status at 400× using an Olympus fluorescence microscope. Stages of germinal vesicle (GV) and subsequent meiotic development were assessed based on known techniques (Chohan and Hunter, 2003, Anim. Reprod. Sci. 76: 43-51). In brief, GV chromatin of bovine oocytes was classified into: GV I—condensed filamentous chromatin around the nucleolus and nuclear membrane; GV II—filamentous chromatin surrounding the nucleolus; GV III—filamentous chromatin clumps are distributed in the nucleus and the nucleolus has disappeared; GV IV—chromatin has condensed into a thick clump; Early diakenesis-chromatin beginning to condense into a single lump; Diakenesis-chromatin has condensed into a single lump; Metaphase I—tetrads are aligned on the spindle; and Metaphase II—the metaphase chromatin is evident as well as a small chromatin-containing polar body.
Oocytes were then fixed and assessed for meiotic progression and classified as GV (germinal vesical intact—still under meiotic arrest) or GVBD (germinal vesical breakdown—resumption of meiosis). A mean number of 45 oocytes were used in each treatment group and time-point from four replicate experiments. The presence of letters (a or b) above each column indicate a statistical difference between the means as determined by ANOVA analysis followed by Bonferronni's post hoc test, P<0.05.
Oocytes were exposed to pre-IVM phase media comprising pure follicular fluid, collection medium, or collection medium supplemented with cAMP modulators (forskolin and IBMX) (A), followed by extended culture in the presence (C; E) or absence (B; D) of the type-3 PDE inhibitor, cilostamide (20 μM), plus follicle stimulating hormone. Oocytes were then fixed and assessed for GV configuration at 2, 5 and 9 hours. A mean number of 40 oocytes were used in each treatment group and time-point from four replicate experiments.
As indicated above, oocytes were aspirated and selected in either follicular fluid, collection medium or collection medium supplemented with 100 μM forskolin (FSK) and 500 μM IBMX for 2 hours. […] Oocytes were then fixed and assessed for meiotic progression at 20, 24 and 28 hours. A mean number of 45 oocytes were used in each treatment group and time-point from four replicate experiments.

The test system of test [6] is oocyte-cumulus cell gap junctional communication. The test can be described thus: Oocyte-cumulus cell gap junctional communication assay (calcein transfer). Format: cell-based, bovine. The conditions noted are these: after 3 hours of IVM culture post pre-IVM phase, FIG. 7.
Description: Cumulus-oocyte gap junctional communication (GJC) was measured by quantitative fluorescence microscopy of calcein transfer to the oocyte as described previously (Thomas et al., 2004, In “Biol. Reprod.”, pp 1142-1149). GJC was measured either after 2 hours of pre-IVM phase or followed by an additional 3 hours of IVM with or without cilostamide (20 μM). A mean number of 10-12 oocytes were used in each treatment group in each of four replicate experiments. After culture, COCs were transferred to a solution of 1 μM calcein-AM (3′,6′-di(O-acetyl)-2′,7′-bis[N,N-bis(carboxymethyl)amino methyl]-fluorescein, tetraacetoxy methyl ester; C-3100; Molecular Probes; Eugene, Oreg., USA) freshly prepared in a BSA-free Bovine VitroCollect (Cook Australia) supplemented with polyvinyl alcohol (PVA; 0.3 mg/ml). […] Prior to fluorescence microphotometry, COCs were completely denuded of their surrounding cumulus cells using vigorous pipetting so that only dye confined within the denuded oocyte after transport via gap junctions was measured. Within 30 minutes of denuding, the intra-oocyte fluorescence emission of calcein in oocytes was measured using a fluorophotometric-inverted microscope (Leica, Wetzlar, Germany). […]

With `COc1cc2ncnc(Nc3cccc(Cl)c3)c2cc1OC` [AG1478], in test [1] (FSH 100 mlU, cilostamide 20 μM, increasing doses of AG1478, 24 hours, from >80% without, FIG. 10), the maturation percentage entry is “approximately 5%”. Also, the “meiotic recovery of FSH and cilostamide treated COCs” value in test [1] (increasing doses of AG1478) is reported as “completely prevented the meiotic recovery”.
For `CC(C)Cn1c(=O)n(C)c(=O)c2[nH]cnc21` [IBMX, 3-isobutyl 1-methylxanthine], in test [2], the “COC cAMP levels during pre-IVM” value is “maintained cAMP levels for 2 hours”. Also, in test [3] (30-60 minutes pre-IVM, IVM with 20 μM cilostamide, FIG. 11B), the “development to the blastocyst stage” value is recorded as “significantly higher than control”. In addition, the “% GV” value in test [4] (36-40 hours) came to 10.3%; in test [4] (42-44 hours), 9.4%; in test [4] (30 hours), 11.1%; in test [4] (48 hours), 10.3%. Also, the “% GVBD” value is 43.6% in test [4] (36-40 hours), 28.1% in test [4] (42-44 hours), 48.1% in test [4] (30 hours) and 28.2% in test [4] (48 hours). Moreover, the “% PB” value in test [4] (36-40 hours) came out at 46.2%; in test [4] (42-44 hours), 62.5%; in test [4] (30 hours) it was 40.7%; in test [4] (48 hours) it was 61.5%.
Turning to `CN(C(=O)CCCOc1ccc2[nH]c(=O)ccc2c1)C1CCCCC1` [cilostamide], the “rates of GVBD” value in test [5] (2 h pre-IVM, 7 h IVM with FSH and cilostamide 20 μM, all pre-IVM treatments, FIG. 5) is recorded as “significantly lowered the rates of GVBD”. Besides, the “oocytes at GV IV” value in test [5] (9 hours, collection medium lacking cAMP modulators, 7 h IVM+cilostamide, FIG. 6E) is 51%±10. Moreover, the “oocytes at M I stage” value in test [5] (20 hours of IVM with cilostamide, absence of FSH, FIG. 8A) is recorded as 36%±4; in test [5] (20 hours of IVM+cilostamide, presence of FSH, FIG. 8B), 21%±4. For the same molecule, the “oocytes progressed to M II stage” value in test [5] (24 hours of IVM with cilostamide, absence of FSH, FIG. 8A) worked out at 50%. Also, the “oocytes arrested at the M I stage” value in test [5] (cilostamide, absence of FSH, 24 hours of culture, FIG. 8A) is recorded as 40-50%. The “levels of gap junctional communication” value in test [6] is given as “had no effect in maintaining the level of gap junctional communication”. In addition, in test [3] (collection phase CM without cAMP modulators, IVM +cilostamide, maturation time 24), the “% Blastocysts” value is recorded as 22%. Also, the “effect of dose on resumption of meiosis” value in test [4] (cilostamide 0.1 μM) is recorded as “non-inhibiting”; in test [4] (cilostamide 1.0 μM) it was “inhibiting dose”. The “Germinal Vesicle Breakdown” value in test [4] (cilostamide 0.1 μM during IVM (n = 39)) is 44%; in test [4] (cilostamide 1.0 μM during IVM (n = 38)), 13%.
